The structures appear in SMILES notation.

The target in the test is T1, 3-oxo-5-alpha-steroid 4-dehydrogenase 2 (Homo sapiens, UniProt P31213).
T1 sequence (P31213 whole entry): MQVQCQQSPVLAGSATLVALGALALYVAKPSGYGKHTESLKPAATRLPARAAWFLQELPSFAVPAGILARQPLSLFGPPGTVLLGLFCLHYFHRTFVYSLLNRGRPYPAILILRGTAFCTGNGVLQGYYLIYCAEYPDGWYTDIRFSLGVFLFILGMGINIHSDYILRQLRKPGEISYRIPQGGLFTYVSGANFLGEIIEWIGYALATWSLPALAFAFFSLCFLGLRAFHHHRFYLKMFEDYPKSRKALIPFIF
The experiment in a line: 5Alpha-Reductase Activity Assay. The note with it: pH 6.5; 37 °C. The source says:
The IC50 values for the synthesized steroids with human prostate 5alpha-reductase enzyme.
The IC50 is the concentration at which inhibition is half-maximal. Read a high IC50 as weaker potency in that assay. In the case of `CC(C)(C)NC(=O)[C@H]1CCC2C3CCC4NC(=O)C=C[C@]4(C)C3CC[C@@]21C` (stereo not given in full) [Finasteride, 3], the IC50 was 8.5 nM.

The compound `CC(=O)[C@@]1(OC(=O)c2ccccc2)CCC2C3CCC4=CC(=O)CC[C@]4(C)C3CC[C@@]21C` (stereo not given in full) [Steroid, 9a] registered an IC50 of 360 nM. Against the preceding compound, the IC50 is about 42-fold higher.

Turning to `CC(=O)[C@@]1(OC(=O)c2ccc(Br)cc2)CCC2C3CCC4=CC(=O)CC[C@]4(C)C3CC[C@@]21C` (stereo not given in full) [Steroid, 9b], half-maximal inhibition (IC50) was put at 370 nM.

Compound `CC(=O)[C@@]1(OC(=O)c2ccccc2)CCC2C3CC[C@@]45O[C@@H]4C(=O)CC[C@]5(C)C3CC[C@@]21C` (stereo not given in full) [Steroid, 10a] returned an IC50 of 13 nM.

`CC(=O)[C@@]1(OC(=O)c2ccc(Br)cc2)CCC2C3CC[C@@]45O[C@@H]4C(=O)CC[C@]5(C)C3CC[C@@]21C` (stereo not given in full) [Steroid, 10b] displayed an IC50 of 4.9 nM.

The values above are taken from BindingDB's records for doi:10.1080/14756360802323720 (National University of Mexico City, 2009).
